Data: article PMC4474554 (PLoS ONE, 2015)
Values joined by “and” are separate entries in the source; they are usually repeats but may differ in a detail not shown here. Identical values can stand only once. “Also recorded” adds a separate entry of the source. Like-named read-outs stand apart in the source and are kept apart here.

Key:
phospho-FAK = test: Western blotting, FAK phosphorylation in NSCLC cell lines; format: cell-based
Description: (§1) Next, they were washed out with cold PBS and lysed in 1 × cell lysis buffer [20 mM Tris-HCl (pH 7.5), 150 mM NaCl, 1 mM Na2EDTA, 1 mM EGTA, 1% Triton, 2.5 mM sodium pyrophosphate, 1 mM beta-glycerophosphate, 1 mM Na3VO4, 1 μg/ml leupeptin] (Cell signaling Technology) supplemented with Complete, Mini (Roche, Basel, Switzerland) to extract protein. After the protein concentration was measured, equal amounts of total protein (30 μg) were separated by SDS-PAGE and transferred to PVDF membranes. The proteins on membranes were incubated overnight at 4°C with the primary antibodies. The following secondary antibodies were used: goat antirabbit or antimouse IgG-conjugated horseradish peroxidase (HRP) (Santa Cruz Biotechnology, Santa Cruz, CA). To detect specific signals, the membranes were incubated by ECL plus Western Blotting Detection Reagents (Amersham Biosciences UK Limited, Buckinghamshire, UK).

phospho-IGF-IR = test: Western blotting, IGF-IR phosphorylation in NSCLC cell lines; format: cell-based; settings: up to a concentration of 5 μM; PC-9, HCC827, NCI-H1975, RPC-9, NCI-H1299, NCI-H1819
Description: as §1

[1] = tested on: phospho-EGFR and downstream AKT, MAPK; test: Western blotting, EGFR, AKT and MAPK phosphorylation in NSCLC cell lines; format: cell-based
Description: as §1

[2] = Body weight / side effects in xenograft mice; format: in vivo, BALB/c-nu/nu female nude mice; settings: 14 days, nude mice with xenografts
Description: In this experiment, we used BALB/c-nu/nu female nude mice at 4–6 weeks of age that were purchased from Charles River Laboratories Japan, Inc (Yokohama, Japan). They were maintained under specific-pathogen-free conditions in accordance with the guidelines of the Animal Care and Use Committee at Okayama University. […] Every three days, body weight of the mice and the major axis and minor axis of each tumor were measured and calculated tumor volume using the following formula; (major axis) × (minor axis)^2 × 1/2 [37, 38]. For the 14 days, tumor volume, tumor growth rate and the body weight were analyzed as an average of the each group.

IGF-1R = tested on: IGF-1R; parameters: method as in earlier work; settings: updated data; cited from earlier work
Pyk2 = tested on: Pyk2; parameters: method as in earlier work; settings: updated data; cited from earlier work
Insulin-R = tested on: Insulin-R; parameters: method as in earlier work; settings: updated data; cited from earlier work
ZAP-70 = tested on: ZAP-70; parameters: method as in earlier work; settings: updated data; cited from earlier work
HER2 = settings: updated data; cited from earlier work
Flt-3 = tested on: Flt-3; parameters: method as in earlier work; settings: updated data; cited from earlier work
Flt-4 = tested on: Flt-4; parameters: method as in earlier work; settings: updated data; cited from earlier work
FGFR-1 = settings: updated data; cited from earlier work
c-Kit = tested on: c-Kit; parameters: method as in earlier work; settings: updated data; cited from earlier work
PDGFR = tested on: PDGFR; parameters: method as in earlier work; settings: updated data; cited from earlier work
PKB/AKT = tested on: PKB/AKT; parameters: method as in earlier work; settings: updated data; cited from earlier work
PC-9 = test: MTS assay, PC-9
MKN45 = test: MTS assay, MKN45
Calu-3 = test: MTS assay, Calu-3
SK-BR-3 = test: MTS assay, SK-BR-3
NCI-H838 = test: MTS assay, NCI-H838
NCI-H3255 = test: MTS assay, NCI-H3255
NCI-H1975 = test: MTS assay, NCI-H1975
NCI-H1395 = test: MTS assay, NCI-H1395
NCI-H1299 = test: MTS assay, NCI-H1299
[3] = EGFR-mutant cell lines PC-9, HCC827, NCI-H1975, RPC-9

Compound: CNC(=O)c1ccccc1Nc1nc(Nc2ccc(N3CCOCC3)cc2OC)ncc1Cl [TAE226]
- phosphorylation of FAK (Thy397) (phospho-FAK; up to a concentration of 5 μM, PC-9, HCC827, NCI-H1975, RPC-9, NCI-H1299, NCI-H1819): not significantly inhibited; also recorded: not suppressed
- phosphorylation of IGF-IR (Tyr1131) (phospho-IGF-IR): not significantly inhibited; also recorded: not suppressed
- phosphorylation of EGFR [1, 3]: predominantly inhibited
- phosphorylations of AKT and MAPK [1, 3]: inhibited
- phosphorylations of EGFR, AKT, and MAPK ([1]; cell lines with wild-type EGFR (NCI-H1299 and NCI-H1819)): not inhibited
- obvious side effects, including the loss of body weight ([2]; 30mg/kg or 60mg/kg oral): did not occur
- body weight ([2]; 90 mg/kg oral): loss of body weight was observed
- IC50 (Pyk2): 40 nM
- IC50 (Insulin-R): 44 nM
- IC50 (ZAP-70): 7700 nM
- IC50 (HER2): 950 nM
- IC50 (Flt-4): 220 nM
- IC50 (c-Kit): > 10000 nM
- IC50 (PDGFR): 2600 nM
- IC50 (PKB/AKT): > 10000 nM
- IC50 (PC-9; read-out: IC50 (μM) (mean ± SD), PC-9, EGFR Exon 19 del (E746-A750), MTS, TAE226 48 hours, gefitinib 72 hours): 0.16 ± 0.01 µM
- IC50 (PC-9; read-out: mean IC50, PC-9, mean of independent MTS assays): 0.16 µM
- IC50 (MKN45; read-out: IC50 (μM) (mean ± SD), MKN45 (gastric cancer), MET amplification, MTS, TAE226 48 hours): 1.1 ± 0.06 µM
- IC50 (MKN45; read-out: each IC50, MKN45, independent MTS assays): 1.04 µM and 1.16 µM
- IC50 (Calu-3; read-out: IC50 (μM) (mean ± SD), Calu-3, HER2 amplification, MTS, TAE226 48 hours, gefitinib 72 hours): 4.1 ± 0.37 µM
- IC50 (Calu-3; read-out: each IC50, Calu-3, independent MTS assays): 4.5 µM and 3.8 µM
- IC50 (SK-BR-3; read-out: IC50 (μM) (mean ± SD), SK-BR-3 (breast cancer), HER2 amplification, MTS, TAE226 48 hours): 35.1 ± 0.53 µM
- IC50 (SK-BR-3; read-out: each IC50, SK-BR-3, independent MTS assays): 34.6 µM and 35.6 µM
- IC50 (NCI-H838; read-out: IC50 (μM) (mean ± SD), NCI-H838, no alterations, MTS, TAE226 48 hours, gefitinib 72 hours): 6.2 ± 0.02 µM
- IC50 (NCI-H838; read-out: each IC50, NCI-H838, independent MTS assays): 6.3 µM and 6.2 µM
- IC50 (NCI-H838; read-out: mean IC50, NCI-H838, mean of independent MTS assays): 6.2 µM
- IC50 (NCI-H3255; read-out: IC50 (μM) (mean ± SD), NCI-H3255, EGFR Exon 21 (L858R), MTS, TAE226 48 hours, gefitinib 72 hours): 0.12 ± 0.005 µM
- IC50 (NCI-H3255; read-out: each IC50, NCI-H3255, independent MTS assays): 0.12 µM and 0.13 µM
- IC50 (NCI-H3255; read-out: mean IC50, NCI-H3255, mean of independent MTS assays): 0.12 µM
- IC50 (NCI-H1975; read-out: IC50 (μM) (mean ± SD), NCI-H1975, EGFR Exon 21 (L858R) + T790M, MTS, TAE226 48 hours, gefitinib 72 hours): 0.17 ± 0.02 µM
- IC50 (NCI-H1299; read-out: IC50 (μM) (mean ± SD), NCI-H1299, no alterations, MTS, TAE226 48 hours, gefitinib 72 hours): 2.8 ± 0.26 µM
- IC50 (NCI-H1299; read-out: each IC50, NCI-H1299, independent MTS assays): 3.1 µM and 3 µM and 2.7 µM and 2.4 µM
